Results from patent publication US10736927B2, “Pharmaceutical compositions for preventing or treating inflammatory bowel diseases” (INSERM (INSTITUT NATIONAL DE LA SANTE ET DE LA RECHERCHE …, priority 2015, dated 2020).

Tests used:
Card9−/−→GF mice = test: DSS-induced colitis in Card9−/−→GF mice supplemented with three Lactobacillus strains; assay type: in vivo; settings: antagonist 100 μg/mouse i.p. three times per week, data not shown
Experimental: To induce colitis, mice were administered drinking water supplemented with 2% (wt./vol.) dextran sulfate sodium (DSS; MP Biomedicals, LLC, Aurora, Ohio, USA) for 7 days and were then allowed to recover by drinking unsupplemented water for the next 5 days. The 6-formylindolo(3,2-b)carbazole (Ficz; Enzo Life Sciences, Lausen, Switzerland) and the AHR antagonist CH223191 (AHR; Sigma-Aldrich) were resuspended in dimethyl sulfoxide (DMSO; Sigma-Aldrich) and administered intraperitoneally. Ficz was injected 1 day after DSS administration (1 μg/mouse). For the AHR treatment, WT→GF and Card9−/−→GF mice (4- to 5-week-old females) were treated (100 μg/mouse) three times per week until euthanization. Controls consisted of mice injected with DMSO vehicle alone for the Ficz and AHR treatment groups. […] The resulting sequences were aligned, inspected by eye, and compared with the online tool BLAST. Strains were identified based on the highest hit scores. These strains were deposited in the Collection Nationale de Cultures de Microorganismes (CNCM) of the Institut Pasteur and named L. murinus CNCM I-5020, L. reuteri CNCM I-5022, and L. taiwanensis CNCM I-5019. […] In all treatments, body weight, blood in stool, and stool consistency were analyzed daily. The severity of colitis was assessed using the disease activity index (DAI) as previously described (6).

[1] = test system: DSS-exposed MCard9−/− mice; test: DSS-induced colitis with Ficz injection in microbiota-colonized germ-free mice; assay type: in vivo; settings: Ficz 1 μg/mouse i.p. 1 day after DSS; Ficz-treated MCard9−/− mice vs non-treated counterparts during recovery
Experimental: Fresh stool samples from WT or Card9^−/− mice were immediately transferred to an anaerobic chamber, in which the stool samples were suspended and diluted 1:100 in LYHBHI medium (BD Difco, Le Pont De Claix, France) supplemented with cellobiose (1 mg/ml; Sigma-Aldrich, St. Louis, Mo., USA), maltose (1 mg/ml; Sigma-Aldrich), and cysteine (0.5 mg/ml; Sigma-Aldrich). Four- to five-week-old WT germ-free mice were randomly assigned to two groups and inoculated via oral gavage with 400 μl of fecal suspension from the conventional wild-type (MWT) or Card9^−/− (MCard9^−/−) mice and maintained in separated isolators. One aliquot of each fecal suspension was stored at −80° C. […]
To induce colitis, the mice were administered drinking water supplemented with 2% (w/v) dextran sulfate sodium (DSS; MP Biomedicals, LLC, Aurora, Ohio, USA) for 7 days, and then allowed to recover by drinking unsupplemented water for the next 5 days (FIG. 7 a). […] Body weight, gross blood, and stool consistency were analyzed daily. The severity of colitis was assessed using the disease activity index (DAI) as previously described (6).
Colon samples for histological studies were maintained at 4° C. in 4% paraformaldehyde and then embedded in paraffin. […] The number of cleaved caspase-3-positive cells in 100 μm of analyzed colon was counted. Ki67 was quantified as a percentage of the total height of each crypt. […]

[2] = test system: Il22, RegIIIγ, RegIIIβ, Il17A transcript expression in colon; test: Colon transcript expression by qRT-PCR in DSS-exposed mice treated with Ficz; assay type: in vivo, mouse
Experimental: (§1) To induce colitis, the mice were administered drinking water supplemented with 2% (w/v) dextran sulfate sodium (DSS; MP Biomedicals, LLC, Aurora, Ohio, USA) for 7 days, and then allowed to recover by drinking unsupplemented water for the next 5 days (FIG. 7 a). 6-formylindolo[3,2-b]carbazole (Ficz) was obtained from Enzo Life Sciences (Lausen, Switzerland) resuspended in dimethyl sulfoxide (DMSO; Sigma-Aldrich) and was administered intraperitoneally 1 day after DSS administration (1 μg/mouse). Controls consisted of mice injected with DMSO vehicle alone. For the antifungal treatment, mice were fed 0.5 mg/ml fluconazole in the drinking water (Sigma-Aldrich) 1 week before DSS administration and every day thereafter, as previously described^18. Body weight, gross blood, and stool consistency were analyzed daily. The severity of colitis was assessed using the disease activity index (DAI) as previously described (6).
Total RNA was isolated from colon samples using an RNeasy Mini Kit (Qiagen, Hilden, Germany), according to the manufacturer's instructions. Quantitative RT-PCR was performed using SuperScript II Reverse Transcriptase (Life Technologies, Saint Aubin, France) and then a Takyon SYBR Green PCR kit (Eurogentec, Liege, Belgium) in a StepOnePlus apparatus (Applied Biosystems, Foster City, Calif., USA) with specific mouse oligonucleotides. We used the 2^−ΔΔCt quantification method with mouse Gapdh as an endogenous control and the WT or MWT group as a calibrator.

[3] = test system: cytokines secreted by colon explants; test: Cytokines secreted by colon explants (ELISA) of DSS-exposed mice treated with Ficz; assay type: in vivo, mouse
Experimental: as §1
MLNs and spleens were sieved through a 70-μm cell strainer (BD, Le Pont De Claix, France) in complete RPMI 1640 medium (10% heat-inactivated fetal calf serum, 2 mM L-glutamine, 50 IU/ml penicillin, and 50 μg/ml streptomycin; Sigma-Aldrich), and 1×10^6 cells per well were cultured (37° C., 10% CO2) for 48 h with stimulation by phorbol 12-myristate 13-acetate (PMA, 50 ng/ml; Sigma-Aldrich) and ionomycin (1 μM; Sigma-Aldrich). The culture supernatant was frozen at −80° C. until processing. To measure the cytokine levels in the colonic explants, tissues from the medium colon were isolated and rinsed in phosphate buffered saline (PBS; Gibco, Paisley, United Kingdom). The colonic explants were cultured (37° C., 10% CO2) overnight in 24-well tissue culture plates (Costar, Corning, Amsterdam, The Netherlands) in 1 ml of complete RPMI 1640 medium. The culture supernatants were collected and stored at −80° C. until processing. ELISAs were performed on the supernatants to quantify mouse cytokines according to the manufacturer's instructions: IL10, IL17A, and IFNγ (Mabtech, Nacka Strand, Sweden); IL22 (eBioscience, San Diego, Calif., USA); and IL6 (R&D Systems, Minneapolis, Minn., USA). For the colonic explants, cytokine concentrations were normalized according to the dry weight of each colonic explant.

[4] = test system: DSS-exposed MWT and MCard9−/− mice; test: DSS-induced colitis with antifungal treatment in MWT and MCard9−/− mice; assay type: in vivo, mouse; settings: fluconazole 0.5 mg/ml in drinking water from 1 week before DSS
Experimental: as §1

AhR = AhR activation luciferase reporter assay in H1L1.1c2 cells; assay type: cell-based, mouse; settings: bacterial culture supernatant, relative to culture media (FIG. 13a)
Experimental: The H1L1.1c2 cell line containing a stably integrated DRE-driven firefly luciferase reporter plasmid pGudLuc1.1 was provided by Michael S. Denison (University of California, Davis, Calif., USA) and has been described previously (47, 48). The cells were seeded in 96-well plates at 7.5×10^4 cells/well in 100 μl of complete DMEM medium (10% heat-inactivated fetal calf serum, 50 IU/ml penicillin, and 50 μg/ml streptomycin; Sigma-Aldrich) and cultured (37° C., 10% CO2) for 24 h prior to treatment. Fresh stools from healthy and IBD patients in remission and from WT, Card9^−/−, MWT, MCard9^−/−, Ido1^−/− and germ-free mice were collected, weighed and stored at −80° C. until processing. The stools were suspended, diluted to 100 mg/ml in PBS, centrifuged (5000 g, 15 min, 4° C.) and filtered (0.2 μm; VWR, Fontenay-sous-Bois, France). Lactobacillus and Bifidobacterium spp. were grown in MRS medium (BD Difco, Le Pont De Claix, France) supplemented with 10% cysteine (Sigma-Aldrich) at 37° C. under respectively aerobic and anaerobic conditions. Allobaculum stercoricanis (DSMZ 13633) was cultivated under the recommended culture condition listed in the DSMZ. Cultured supernatants of these bacteria were stored at −80° C. until processing. […] After adding 100 μl of Promega-stabilized luciferase reagent, the luciferase activity was measured using a luminometer. […]

[5] = defect in MCard9−/− mice, Ficz 1 μg/mouse i.p.
[6] = Ficz-treated vs non-treated MCard9−/− mice

For `Cc1ccccc1N=Nc1ccc(NC(=O)c2ccnn2C)c(C)c1` [AHR antagonist, CH223191], the “effects of the three Lactobacillus strains in the presence of an AHR antagonist” value (Card9−/−→GF mice) was “abrogated”.

In the case of `O=Cc1c2c(cc3c1=Nc1ccccc1-3)=Nc1ccccc1-2` [Ficz, 6-formylindolo[3,2-b]carbazole], the “colitis severity (body weight loss, histology score, colon shortening)” value [1] is reported as “weaker colitis severity”, the Il17 expression ([2]; colon, Ficz treatment) is reported as “not altered” and the Il22 colonic expression [2, 5] is reported as “rescued”. The RegIIIβ colonic expression [2, 5] was “rescued”, the RegIIIγ colonic expression [2, 5] was “rescued” and the “IFNgamma in the colon” value [3, 6] was “No significant differences”. For the same compound, the “IL6 in the colon” value [3, 6] was “No significant differences”, the “IL10 in the colon” value [3, 6] was “No significant differences” and the Il17 production ([3]; colon explants cultured 24 h, Ficz treatment) was “not altered”.

With `OC(Cn1cncn1)(Cn1cncn1)c1ccc(F)cc1F` [antifungal, fluconazole] the “colitis phenotype (weight loss and DAI) of MCard9−/− vs MWT mice” value [4] was “did not modify the phenotype”.

Lactobacillus reuteri was tested, and the “AhR activation by cultured supernatants” value (AhR) was “strongly activate AhR”.
